In US20110082133A1, “PYRIDONE COMPOUNDS” (priority 2008, published 2011) one finds IC50 data, which are given here for four compounds.

Counter-ions that a name gives are not always drawn.

Assay [1] has as its system LPS-induced TNF-α production in THP-1 cells. The assay is described as follows: Inhibitory action on LPS-induced TNF-α production in THP-1 cells. The class given is cell-based. Particulars: Homo sapiens, 3 hours after LPS, ELISA. The procedure:
Human monocytic cell line THP-1 cells were suspended in an assay medium (PRMI-1640 containing 10% fetal bovine serum, 100 unit/mL penicillin G sodium, and 100 μg/mL streptomycin sulfate), and seeded onto a 96-well plate at 1×10^5 cells/well. 50 μL/well of an assay medium containing a test compound was added thereto, followed by incubation at 37° C. for 30 minutes. Further, 50 μL/well of an assay medium containing 1 to 5 μg/mL of LPS was added thereto, and the TNF-α concentration in the assay medium of each well after 3 hours was measured. The measurement was carried out by means of a standard ELISA method. A 96-well plate which had been coated overnight with an anti-human TNF monoclonal antibody (clone: MAb1) (manufactured by Becton, Dickinson and Company) as a capture antibody was washed with a wash buffer (PBS containing 0.05% Tween-20), and PBS containing 10% fetal bovine serum was incubated at room temperature for 1 hour to perform blocking. After washing with a wash buffer, 100 μL/well of the assay medium to be measured was incubated at 4° C. overnight. As the standard material to be measured, a recombinant human TNF (manufactured by Becton, Dickinson and Company) was used. After washing with a wash buffer, 100 μL of a biotinylated anti-human TNF monoclonal antibody (clone: MAb11) as a detection antibody was treated at room temperature for 1 hour. After washing with a wash buffer, it was treated with 100 μL/well of an HRP-labeled Streptavidin (manufactured by Zymed Laboratories, Inc.) at room temperature for 30 minutes, and washed again. Treatment was conducted using 100 μL/well of a TMB (3,3′,5,5′-tetramethylbenzidine) substrate liquid at room temperature for 20 minutes in a dark room. A 2 M sulfuric acid was added thereto at 50 μL/well to stop the reaction, and an absorbance at 450 nm/570 nm was measured by means of a plate reader SPECRA max (manufactured by Molecular Devices Inc.).
(An ELISA detects its analyte on a solid surface through an enzyme-linked reagent.)

The target in assay [2] is T1, rat EP3β receptor (Rattus norvegicus, UniProt P34980).
T1 construct: expressed in transfected cells
T1 sequence (P34980 1-361 isoform P34980-2): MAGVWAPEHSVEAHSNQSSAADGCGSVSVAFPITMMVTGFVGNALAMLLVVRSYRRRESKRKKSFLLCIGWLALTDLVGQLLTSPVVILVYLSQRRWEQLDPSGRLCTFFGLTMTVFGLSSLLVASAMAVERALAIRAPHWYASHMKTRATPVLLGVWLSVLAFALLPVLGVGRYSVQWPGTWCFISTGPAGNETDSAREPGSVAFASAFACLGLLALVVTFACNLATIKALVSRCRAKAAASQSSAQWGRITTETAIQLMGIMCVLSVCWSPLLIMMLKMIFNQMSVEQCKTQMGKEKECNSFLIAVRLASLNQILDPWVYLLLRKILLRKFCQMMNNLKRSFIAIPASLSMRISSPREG
Nature of the assay: Rat EP3 receptor agonistic/antagonistic action (intracellular Ca2+, FLIPR, HEK293 stable expression cells). The assay is classed as cell-based. Particulars: inhibition of intracellular Ca2+ increasing action by PGE2; read-out: RatEP3 Antagonistic Action IC50. The procedure:
Using rat EP1 or rat EP3β receptor stable expression cells, the intracellular Ca^2+ concentration was measured using a fluorescent imaging plate reader (FLIPR manufactured by Molecular Devices Corporation). The agonistic activity was evaluated by the intracellular Ca^2+ increasing action of the test compound, and the antagonistic activity was evaluated by the inhibiting action of the test compound on the intracellular Ca^2+ increasing action by PGE2.
The cDNA of the rat EP 1 or EP3β receptor was subcloned into an expression vector (pcDNA3.1-V5-His-topo, manufactured by Invitrogen Corporation). This expression vector was introduced into HEK293 cells (American Type Culture Collection) to prepare a rat EP1 or EP3β receptor stable expression cell line. These cells were seeded onto a 96-well poly-D-lysin treated black wall clear bottom plate (manufactured by Becton, Dickinson and Company) at 2 to 3×10^4 cell/well, and used for the experiment the next day. The measurement of the intracellular Ca^2+ concentration was carried out by an FLIPR calcium 3 assay kit (manufactured by Molecular Devices Corporation). The culture medium of each well was removed by suction and replaced with a loading buffer (Hank's balanced salt solution containing 20 mM HEPES-NaOH (pH 7.4), 2.5 mM Probenecid, 0.1% bovine serum albumin, and a color), followed by incubating at room temperature for 3 hours and loading a color. For the evaluation of the agonistic action, the change in the intracellular Ca^2+ concentration was determined from the difference in the maximum value of the intracellular Ca^2+ concentration after the addition of the test compound and the value before the addition of the test compound. For the evaluation of the antagonistic action, after incubating the test compound for 5 minutes, PGE2 was added thereto to determine the change in the intracellular Ca^2+ concentration by PGE2.
Further, NE means that the action has no significance.

For orientation: IC50 means the concentration that inhibits the measured activity by half. For `O=C(O)c1ccc(CCn2c(CNc3cccc(OC(F)(F)F)c3)c(Cl)cc(Cl)c2=O)cc1` [Example 107], the results for the IC50 in assay [1] and in assay [2] were 40 nM and greater than 10000 nM, respectively.

`CCC[C@H]1CCCN1Cc1c(Cl)cc(Cl)c(=O)n1CCc1ccc(C(=O)O)cc1` [Example 17, 4-{2-[3,5-dichloro-2-oxo-6-{[(2S)-2-propylpyrrolidin-1-yl]methyl}pyridin-1(2H)-yl]ethyl}benzoic acid trifluoroacetate]: the IC50 in assay [1] is 9.4 nM; in assay [2], greater than 10000 nM.

Consider `O=C(O)c1ccc(CCn2c(CN3CCc4ccc(F)cc43)c(Cl)cc(Cl)c2=O)cc1` [Example 9, 4-(2-{3,5-dichloro-6-[(6-fluoro-2,3-dihydro-1H-indol-1-yl)methyl]-2-oxopyridin-1(21-1)-yl}ethyl)benzoic acid], for which the IC50 is 11 nM in assay [1] and greater than 10000 nM in assay [2].

Turning to `CN(Cc1c(Cl)cc(Cl)c(=O)n1CCc1ccc(C(=O)O)cc1)c1cccc(Cl)c1` [Example 160], the 50% inhibitory concentration (IC50) in assay [1] was 29 nM; in assay [2] it was no less than 10000 nM.
